According to patent publication US20180078561A1 (LAM Therapeutics, Inc., priority 2015, published 2018):
Entries after “also recorded” stand apart in the source; their conditions may differ. Read-outs that look alike come from different tables or passages of the source.

Key:
[1] = test system: cancer cell line; assay: vacuolization of cells; type: cell-based; conditions: for vacuolation in cells: at concentrations comparable to apilimod
Excerpt: PIKfyve is associated with the cytosolic leaflet of early endosomes and its activity is required for endomembrane homeostasis, endolysosomal function and proper retrograde transport from the endosome to the trans-Golgi network. Introduction of a kinase dead mutant into cells induces a swollen vacuole phenotype that can be rescued by the injection of PI(3,5)P2. Inhibition of PIKfyve by pharmacological methods as well as RNAi also produces swollen vacuoles and disruption of endomembrane dynamics.
Introduction of a kinase dead mutant into cells induces a swollen vacuole phenotype that can be rescued by the injection of PI(3,5)P2. Inhibition of PIKfyve by pharmacological methods as well as RNAi also produces swollen vacuoles and disruption of endomembrane dynamics.

[2] = target: T1, PIKfyve (Homo sapiens, UniProt Q9Y2I7); assay: dissociation constant (Kd) study; type: binding; conditions: 0.05-3000 nM, duplicate
T1 construct: purchased DiscoveRx, Fremont, Calif
T1 sequence (Q9Y2I7 whole entry): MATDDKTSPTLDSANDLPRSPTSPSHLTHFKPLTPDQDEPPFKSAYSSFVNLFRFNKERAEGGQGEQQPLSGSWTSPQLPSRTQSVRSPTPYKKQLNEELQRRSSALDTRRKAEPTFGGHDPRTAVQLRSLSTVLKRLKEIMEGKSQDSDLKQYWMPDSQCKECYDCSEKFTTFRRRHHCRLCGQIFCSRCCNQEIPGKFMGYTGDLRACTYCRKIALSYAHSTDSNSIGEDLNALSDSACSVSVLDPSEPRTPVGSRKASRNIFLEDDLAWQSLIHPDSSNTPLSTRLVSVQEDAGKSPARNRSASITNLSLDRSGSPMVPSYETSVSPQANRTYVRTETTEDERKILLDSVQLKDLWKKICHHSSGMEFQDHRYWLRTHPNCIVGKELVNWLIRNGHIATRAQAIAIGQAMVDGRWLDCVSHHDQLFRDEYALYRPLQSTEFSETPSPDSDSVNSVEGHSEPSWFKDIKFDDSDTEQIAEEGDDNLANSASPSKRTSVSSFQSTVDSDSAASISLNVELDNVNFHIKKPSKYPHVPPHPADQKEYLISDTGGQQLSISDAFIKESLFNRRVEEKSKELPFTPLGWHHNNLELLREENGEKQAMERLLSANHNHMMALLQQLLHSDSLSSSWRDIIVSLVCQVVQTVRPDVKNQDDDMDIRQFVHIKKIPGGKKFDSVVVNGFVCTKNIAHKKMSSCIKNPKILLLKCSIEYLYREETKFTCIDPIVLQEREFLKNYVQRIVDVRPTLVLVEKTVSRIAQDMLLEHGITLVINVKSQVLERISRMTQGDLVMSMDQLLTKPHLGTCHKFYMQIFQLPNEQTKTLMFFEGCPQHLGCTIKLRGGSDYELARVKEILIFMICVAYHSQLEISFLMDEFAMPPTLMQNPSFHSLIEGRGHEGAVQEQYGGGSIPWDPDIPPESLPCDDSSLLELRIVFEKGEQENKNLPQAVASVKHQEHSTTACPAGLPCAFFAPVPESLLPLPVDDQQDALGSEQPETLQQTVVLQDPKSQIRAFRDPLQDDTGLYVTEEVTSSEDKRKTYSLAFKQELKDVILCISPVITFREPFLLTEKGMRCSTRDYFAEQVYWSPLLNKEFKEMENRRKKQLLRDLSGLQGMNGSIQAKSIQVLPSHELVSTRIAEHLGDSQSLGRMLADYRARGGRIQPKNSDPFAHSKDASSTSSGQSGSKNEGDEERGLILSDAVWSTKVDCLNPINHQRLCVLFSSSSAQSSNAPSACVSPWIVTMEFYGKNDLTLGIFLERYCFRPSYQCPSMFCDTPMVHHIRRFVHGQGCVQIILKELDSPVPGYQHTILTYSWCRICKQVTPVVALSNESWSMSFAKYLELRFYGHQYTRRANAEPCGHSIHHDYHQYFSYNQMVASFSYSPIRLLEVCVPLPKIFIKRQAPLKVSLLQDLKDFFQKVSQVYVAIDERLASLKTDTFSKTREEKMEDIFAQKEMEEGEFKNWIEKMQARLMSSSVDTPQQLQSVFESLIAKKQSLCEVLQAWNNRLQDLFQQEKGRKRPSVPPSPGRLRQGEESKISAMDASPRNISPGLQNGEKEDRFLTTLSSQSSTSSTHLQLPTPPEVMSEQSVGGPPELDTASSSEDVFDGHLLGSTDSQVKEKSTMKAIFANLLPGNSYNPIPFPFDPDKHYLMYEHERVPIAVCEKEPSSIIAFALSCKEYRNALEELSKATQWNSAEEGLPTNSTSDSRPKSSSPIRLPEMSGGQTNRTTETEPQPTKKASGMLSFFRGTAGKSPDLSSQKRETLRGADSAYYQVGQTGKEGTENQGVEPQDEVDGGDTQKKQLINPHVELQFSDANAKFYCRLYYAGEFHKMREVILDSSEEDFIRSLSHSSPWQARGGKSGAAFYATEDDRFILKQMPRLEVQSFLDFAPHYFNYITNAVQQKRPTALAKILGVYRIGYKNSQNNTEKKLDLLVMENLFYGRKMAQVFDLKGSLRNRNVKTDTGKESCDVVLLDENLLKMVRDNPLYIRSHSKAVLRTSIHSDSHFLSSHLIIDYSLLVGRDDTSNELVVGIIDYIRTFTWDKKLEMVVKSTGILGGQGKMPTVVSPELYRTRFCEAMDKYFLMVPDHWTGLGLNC
Procedure: A dissociation constant (Kd) study was performed using the 3 compounds at increasing concentrations (0.05-3000 nM) against PIKfyve.

[3] = human plasma profile of apilimod and metabolites; type: in vivo; conditions: oral 105 mg doses of apilimod free base, given 10 hr apart
[4] = test system: WSU-DLCL2 cells; assay: anti-proliferative activity normalized to apilimod (plasma concentration factors); type: cell-based, Human; conditions: data from WSU-DLCL2 cells
[5] = plasma protein binding; type: in vitro ADME; conditions: rat plasma proteins
[6] = plasma protein binding; type: in vitro ADME; conditions: dog plasma proteins
[7] = plasma protein binding; type: in vitro ADME; conditions: human plasma proteins
[8] = test system: H4; assay: cell viability (CellTiterGlo), apilimod sensitivity; type: cell-based; conditions: Homo sapiens, Human neuroglioma
Excerpt: (§1) 35 cell lines were identified as sensitive to apilimod-induced cytotoxicity.

[9] = test system: MEF-EV (TSC2−/− MEF); assay: 10-point dose response, cell viability (CellTiter-Glo); type: cell-based; conditions: Mus musculus; cell type MEF TSC2 −/− (MEF-EV); 72 h; average of two experiments
Excerpt: TSC2 null cells have constitutively active mTOR. Briefly, MEF cells derived from TSC2−/− knockout mouse embryos (Onda et al., J. Clin. Invest. 104(6):687-95, 1999) were infected with a retrovirus vector encoding the hygromycin antibiotic resistance gene (MEF-EV) or the same retrovirus vector also encoding TSC2 (MEF-TSC2). The MEF-EV and MEF-TSC2 line were then established by hygromycin selection.
See e.g., Zhang et al. J. Clin. Invest. 112, 1223-33, 2003. (2) ELT3-EV and ELT3-TSC2 lines were established from the ELT3 rat tumor cell line. The ELT3 line is an established rat tumor model for LAM/TSC. See e.g., Howe et al., Am. J. Path. 146, 1568-79, 1995. These cells harbor an inactivating mutation in TSC2, which leads to constitutive activation of the mTOR pathway. To develop an isogenic pair of cells ELT3 cells were infected with a retrovirus vector encoding the hygromycin antibiotic resistance gene (ELT3-EV) or the same retrovirus vector also encoding TSC2 (ELT3-TSC2). The ELT3-EV and ELT3-TSC2 line were then established by hygromycin selection. […] The cells were infected with amphotropic retrovirus LXSN16E6E7 that encodes the HPV16 E6 and E7 open reading frames and neomycin resistance cassette. […]
IC50 values were then calculated from the dose response curves using XLFIT (IDBS).

[10] = test system: (TSC2−/−, p53−/−) MEF; assay: as above; type: cell-based; conditions: Mus musculus; cell type MEF TSC2 −/− p53 −/−; 72 h; average of two experiments
Excerpt: (§2) (2) ELT3-EV and ELT3-TSC2 lines were established from the ELT3 rat tumor cell line. […] To develop an isogenic pair of cells ELT3 cells were infected with a retrovirus vector encoding the hygromycin antibiotic resistance gene (ELT3-EV) or the same retrovirus vector also encoding TSC2 (ELT3-TSC2). The ELT3-EV and ELT3-TSC2 line were then established by hygromycin selection. […] The cells were infected with amphotropic retrovirus LXSN16E6E7 that encodes the HPV16 E6 and E7 open reading frames and neomycin resistance cassette. Cells were expanded and neomycin-selected. Individual clones were isolated and frozen down. The coding sequence for the human Telomerase gene (hTERT) with hygromycin resistance cassette (pLXSN hTERT-hyg plasmid) was stably expressed into a TSC2^−/− confirmed E6E7 AML clone using Fugene6 transfection reagent (Roche Applied Science, Indianapolis, Ind.). TRI-AML102 was generated by stable incorporation of a control zeomycin selection plasmid (pcDNA3.1-zeo), while TRI-AML103 expresses the human TSC2 cDNA pcDNA3.1-zeo plasmid.

[11] = test system: TRI-AML102 (TSC2 null AML); assay: as above; type: cell-based; conditions: Homo sapiens; cell type AML (head: AML TSC2 +/− p53 −/−); 72 h; average of two experiments
Excerpt: as §2

[12] = test system: ELT3-EV; assay: as above; type: cell-based; conditions: Rattus norvegicus; cell type ELT3 (ELT3-EV); 72 h; average of two experiments; read-out: IC50 TSC2 −/−
Excerpt: as §2

[13] = test system: Normal lung fibroblasts; assay: cytotoxicity on normal cells; type: cell-based; conditions: concentrations as high as 10 micromolar
Excerpt: as §1

[14] = test system: 122 human cancer cell lines; assay: cancer cell line screen for sensitivity to apilimod; type: cell-based; conditions: sensitive if IC50 less than 500 nM
Excerpt: as §1
The most sensitive of those tested were non-Hodgkin's Lymphoma (NHL) cell lines. […] NHL represents a diverse group of hematopoietic malignancies that vary in severity, with subtypes ranging from slow growing to aggressive. Subtypes of NHL include diffuse large B cell lymphoma (DLBCL), Burkitt's lymphoma, mantle lymphoma, and follicular B cell lymphoma. DLBCL is divided into two subtypes, GCB and ABC, based on gene expression and cell of origin. The GCB are germinal center B cell type, arising from normal germinal center B cells, and the ABC are activated B cell type, arising from post-germinal center B cells in the process of differentiating into plasma cells.

[15] = test system: diffuse large B cell lymphoma cells; assay: Apotox-Glo Triplex assay; type: cell-based; conditions: 48 hours after addition
Procedure: Apoptosis was quantified and distinguished from necrosis using the Apotox-Glo Triplex assay (Promega, Inc.) according to the manufacturer's instructions. In this assay, viability, apoptosis, and necrosis are assessed simultaneously using three different markers (GF-AFC, Caspase-3/7, and bis-AAF-R110, respectively).

[16] = test system: H4 neuroglioma cell line; assay: Cyto-ID Autophagy detection; type: cell-based, Human; conditions: 72 hours of treatment
Excerpt: Autophagy was quantified using the Cyto-ID Autophagy detection kit (Enzo) according to manufacturer's directions.

[17] = test system: SUDHL-4 cells; assay: drug library screen with and without apilimod, cell viability; type: cell-based; conditions: Homo sapiens, SU-DHL-4
Excerpt: A manually curated library of 93 drugs including both FDA approved and unapproved drugs was used in the screen.
Ibrutinib is an FDA-approved drug targeting B-cell malignancies and indicated for monotherapy in treating mantle cell lymphoma and chronic lymphocytic leukemia. It is also known as PCI-32765 and marketed under the trade name Imbruvica™. […] BTK is a key mediator of at least three critical B-cell pro-survival mechanisms occurring in parallel-regulation of apoptosis, cell adhesion and cell migration and homing.

[18] = for Apilimod Ave. Plasma Conc.: Day 7; for sustained blood concentration of apilimod: measured at 24 h
[19] = test system: peripheral blood mononuclear cells; conditions: Wada et al., Blood 109, 2007; cited from earlier work
[20] = test system: U937; conditions: WO 2006/128129; cited from earlier work
[21] = test system: HELA; conditions: WO 2006/128129; cited from earlier work
[22] = test system: Jurkat; conditions: WO 2006/128129; cited from earlier work
[23] = test system: THP-1; conditions: WO 2006/128129; cited from earlier work
[24] = test system: Yulac614 melanoma cells; assay: drug combination screen and validation, cell viability
Procedure: Yulac614 (resistant to vemurafenib, see Choi et al. 2014) cells were used to conduct drug combination studies to identify synergistic drug pairs. A library of 500 unapproved drugs was used to perform drug screening in the presence or absence of vemurafenib (at IC20=6 μM).
30 nL of library drug (at 1000× concentration) was spotted into appropriate wells of a 384 black walled plate (Corning #3712). Duplicate drug-spotted plates were prepared and to them were added Yulac614 cells which were pre-treated with either DMSO (0.01% final) or vemurafenib (6 μM final). The Yulac614 cells were grown in OptiMEM (Life Technologies) containing 5% FBS (Sigma Aldrich F2442-500 mL, Lot 12D370) Penicillin/Streptomycin (100×) (CellGro Ref 30-002). […]
Plates were incubated for 72 h at 37° C. under an atmosphere of 5% CO2 in a humidified incubator. Cell viability was determined with CellTiter-Glo® luminescence assay (Promega) as per the manufacturer's instructions. Viability was expressed as a percentage of control (DMSO) cells. […]
50 uL of the 10 point drug dilution series (at 2× concentration) was added to the cells. […] 72 hours after compound addition relative cell viability was determined by CellTiter-Glo® luminescence assay (Promega) as per the manufacturer's instructions, and values were expressed as a percentage relative to vehicle (DMSO) treated control cells (set to 100%).

With Cc1cccc(/C=N/Nc2cc(N3CCOCC3)nc(OCC(O)c3ccccn3)n2)c1 (stereo not shown) [STA-5908] the vacuolation in cells [1] was “cause vacuolation in cells at comparable concentrations”, the Kd [2] was 0.09 nM and the “mean Cmax relative to apilimod” value [3] was “somewhat less than half”. For the same compound, the “plasma concentration factor (for Apilimod Equivalent Concentrations)” value (shortened to “plasma concentration factor”) [4] was 0.68.
For Cc1cccc(/C=N/Nc2cc(N3CCOCC3)nc(OCCc3cccc[n+]3[O-])n2)c1 [STA-5944], the vacuolation in cells [1] was “cause vacuolation in cells at comparable concentrations”, the Kd [2] was 0.061 nM and the “mean Cmax relative to apilimod” value [3] was “somewhat less than half”. For the same compound, the “plasma concentration factor” value [4] was 0.52.
With Cc1cccc(/C=N/Nc2cc(N3CCOCC3)nc(OCC(O)c3cccc[n+]3[O-])n2)c1 (stereo not shown) [STA-6048] the vacuolation in cells [1] was “cause vacuolation in cells at comparable concentrations”, the Kd [2] was 0.088 nM and the “plasma concentration factor” value [4] was 0.26.
With Cc1cccc(/C=N/Nc2cc(N3CCOCC3)nc(OCCc3ccccn3)n2)c1 [apilimod free base] the fraction unbound [5] was < 0.01, the fraction unbound [6] was < 0.01 and the fraction unbound [7] was < 0.01.
Work on Cc1cccc(/C=N/Nc2cc(N3CCOCC3)nc(OCCc3ccccn3)n2)c1 [apilimod] yielded an IC50 [8] of 250 to 300 nM, an IC50 [9] of 19.7 nM and an IC50 [10] of 28.8 nM. For the same compound, the IC50 [11] was 117 nM, the IC50 [12] was 13.7 nM and the apilimod-induced cytotoxicity [13] was “not cytotoxic; also recorded: insensitive”. The “NHL cell lines tested that were sensitive to apilimod” value ([14]; non-Hodgkin's Lymphoma cell lines) was “over 50%”, the “cell lines identified as sensitive to apilimod-induced cytotoxicity” value ([14]; of 122 human cancer cell lines) was 35 cell lines and the “apoptosis (Caspase-3/7 marker)” value [15] was “increased apoptosis”. The “autophagy (autophagic vacuoles)” value [16] was “induced autophagy in a dose-dependent manner”, the “apilimod concentration at which vacuole formation in cells was observed” value ([1]; as low as) was 20 nM and the vacuolization ([1]; live cells, 500 nM, 24 h) was “induces vacuolization”. For the same compound, the IC20 [17] was 10 nM, the “Apilimod Ave. Plasma Conc.” value ([18]; Group 3: S.C. pump ~15 mg/kg/d (DRW) + I.P. 30 mg/kg (MC)) was 0.682 µM and the “Apilimod Ave. Plasma Conc.” value ([18]; Group 7: S.C. pump ~15 mg/kg/d (DRW) + I.P. 30 mg/kg (DRD)) was 0.613 µM. The “Apilimod Ave. Plasma Conc.” value ([18]; Group 8: S.C. pump ~30 mg/kg/d (DRW) + I.P. 30 mg/kg (DRD)) was 1.76 µM, the “Apilimod Ave. Plasma Conc.” value ([18]; Group 9: S.C. pump ~15 mg/kg/d (DRW) only) was 0.755 µM and the “Apilimod Ave. Plasma Conc.” value ([18]; Group 10: S.C. pump ~30 mg/kg/d (DRW) only) was 1.87 µM. The “sustained blood concentration of apilimod” value ([18]; S.C. osmotic mini-pump 15 mg/kg/day (bis-mesylate salt)) was > 0.5 µM, the “sustained blood concentration of apilimod” value ([18]; S.C. osmotic mini-pump 30 mg/kg/day (bis-mesylate salt)) was > 1 µM and the cytotoxicity [19] was “not cytotoxic”. The cytotoxicity [20] was “not cytotoxic”, the cytotoxicity [21] was “not cytotoxic” and the cytotoxicity [22] was “not cytotoxic”. The cytotoxicity [23] was “not cytotoxic” and the IC20 [24] was 500 nM.
